Laboratory results reported in patent publication US12054464B1, “Methyl 4-((5-(3-fluorophenyl)-4-phenyl-4H-1,2,4-triazol-3-ylthio)methyl)benzoate as an antimicrobial compound” (KING FAISAL UNIVERSITY, priority 2023, dated 2024).
Values belong to the molecule of their own block, whether it stands above or below them.

Tests used:
[1] = test system: Chrysosporium keratinophilum; test: agar plate disc-diffusion, antifungal activity by inhibition zone; assay type: cell-based
Experimental: (§1) The agar plate disc-diffusion method was applied. Sterilized filter papers (6 mm in diameter) were wetted with 10 μL of a solution of methyl 4-((5-(3-fluorophenyl)-4-phenyl-4H-1,2,4-triazol-3-ylthio)methyl)benzoate (III) to be tested, containing 10 mg/mL in DMSO, and the discs were allowed to air dry. The discs were then placed onto the surface of agar plates (nutrient agar for bacteria and Sabouraud's dextrose agar for fungi) seeded with the test organism. Each plate contained 15 mL of the agar medium, previously seeded with 0.2 mL of the broth culture of each organism pregrown for 18 hours. The plates were incubated at 37 °C for 48 hours, and 72 hours for fungi. The inhibition zones were measured in mm. Discs impregnated with DMSO were used as a control, and its inhibition zone was subtracted from the tested compound actual inhibition zone.

Aspergillus flavus = test: as above; assay type: cell-based
Experimental: as §1

Escherichia coli = test: agar plate disc-diffusion, antibacterial activity by inhibition zone; assay type: cell-based; details: Escherichia coli (Gram negative)
Experimental: as §1

Pseudomonas aeruginosa = test: as above; assay type: cell-based; details: Pseudomonas aeruginosa (Gram negative)
Experimental: as §1

Bacillus Cereus = test: as above; assay type: cell-based; details: Bacillus Cereus (Gram positive)
Experimental: as §1

Staphylococcus aureus = test: as above; assay type: cell-based; details: Staphylococcus aureus (Gram positive)
Experimental: as §1

[2] = A = concentration of comp. = 10,000 μL
[3] = B = concentration of comp. = 30,000 μL
[4] = C = concentration of comp. = 50,000 μL

SMILES: O=C(O)c1cn(C2CC2)c2cc(N3CCNCC3)c(F)cc2c1=O [Cip., ciprofloxacin, reference compound]
- inhibition zone [1, 2]: 29 mm
- inhibition zone [1, 3]: 30 mm
- inhibition zone [1, 4]: 53 mm
- inhibition zone (Aspergillus flavus; [2]): 29 mm
- inhibition zone (Aspergillus flavus; [3]): 30 mm
- inhibition zone (Aspergillus flavus; [4]): 42 mm
- inhibition zone (Escherichia coli; [2]): 30 mm
- inhibition zone (Escherichia coli; [3]): 39 mm
- inhibition zone (Escherichia coli; [4]): 60 mm
- inhibition zone (Pseudomonas aeruginosa; [2]): 29 mm
- inhibition zone (Pseudomonas aeruginosa; [3]): 30 mm
- inhibition zone (Pseudomonas aeruginosa; [4]): 53 mm
- inhibition zone (Bacillus Cereus; [2]): 29 mm
- inhibition zone (Bacillus Cereus; [3]): 30 mm
- inhibition zone (Bacillus Cereus; [4]): 42 mm
- inhibition zone (Staphylococcus aureus; [2]): 43 mm
- inhibition zone (Staphylococcus aureus; [3]): 44 mm
- inhibition zone (Staphylococcus aureus; [4]): 53 mm

- melting point: 185 to 186 °C
SMILES: COC(=O)c1ccc(CSc2nnc(-c3cccc(F)c3)n2-c2ccccc2)cc1 [III, methyl 4-((5-(3-fluorophenyl)-4-phenyl-4H-1,2,4-triazol-3-ylthio)methyl)benzoate]
- inhibition zone [1, 2]: 28 mm
- inhibition zone [1, 3]: 30 mm
- inhibition zone [1, 4]: 49 mm
- inhibition zone (Aspergillus flavus; [2]): 19 mm
- inhibition zone (Aspergillus flavus; [3]): 24 mm
- inhibition zone (Aspergillus flavus; [4]): 34 mm
- inhibition zone (Escherichia coli; [2]): 29 mm
- inhibition zone (Escherichia coli; [3]): 38 mm
- inhibition zone (Escherichia coli; [4]): 54 mm
- inhibition zone (Pseudomonas aeruginosa; [2]): 24 mm
- inhibition zone (Pseudomonas aeruginosa; [3]): 33 mm
- inhibition zone (Pseudomonas aeruginosa; [4]): 40 mm
- inhibition zone (Bacillus Cereus; [2]): 28 mm
- inhibition zone (Bacillus Cereus; [3]): 29 mm
- inhibition zone (Bacillus Cereus; [4]): 40 mm
- inhibition zone (Staphylococcus aureus; [2]): 14 mm
- inhibition zone (Staphylococcus aureus; [3]): 20 mm
- inhibition zone (Staphylococcus aureus; [4]): 23 mm
